# Patent publication US20110195979A1, “COMPOUNDS FOR THE TREATMENT AND PREVENTION OF INFLUENZA” (priority 2010, published 2011)
# Key:
# Influenza H1N1 virus = test: Viral cytopathic effect (CPE) assay; assay type: cell-based, Influenza A (H1N1); settings: Influenza A virus, H1N1, MDCK, 72 h, read-out: CPE_EC50
# Method: Cells and viruses. Madin-Darby canine kidney cell (MDCK) was purchased from American type culture collection (ATCC) and was maintained in minimal essential medium (MEM) containing 10% fetal bovine serum and antibiotics. Influenza A/Weiss/43 (H1N1), A/PR/8/34 (H1N1), and A/Hongkong/8/68 (H3N2) were purchased from ATCC and propagated in 10-day-old embryonated chicken eggs at 37° C. Virus was harvested 48 h after inoculation as pooled allantoic fluid. After a brief centrifugation (3,000 rpm at room temperature for 20 min) and virus titer measurement by a hemagglutination test, virus was aliquoted and stored at a −80° C. freezer.
# Viral cytopathic effect (CPE) assay: To measure anti-influenza activity of compounds, MDCK cells were seeded into 96-well plates at a density of 5,000 cells per well. Next day, compounds were serially half-log diluted with Gibco SFM containing trypsin. Compounds and 50 pfu of virus were added into corresponding wells to make m.o.i at 0.01 and a final trypsin concentration of 2.5 μg/ml. The testing plates also contained medium control, cell control, virus control, and compound toxicity control. After a 3-day treatment, cell viability was measured with a MTT (3-(4,5-dimethylthiazol-2-yl)-2,5-diphenyltetrazolium bromide) method. Briefly, 20 μl of MTT diluted in culture medium was added into each wells and incubated at 37° C. for 4 hours. Reduced MTT (formazan) was extracted with acidic isopropanol and absorbance at wavelengths of 570 nm and 630 nm (OD570 and OD630) was read on a microtiter plate reader. After subtraction of background OD values, dose response curves of half-log concentration vs. percent protection were generated, on which half maximal effective concentration (EC50) and half maximal toxic concentration (CC50) were calculated.
# MDCK cells = test: in vitro; settings: dog, Cytotoxicy IC50
structure (smiles),measurement,setting,value
"COC1CC(C)(C)CC(C)(CNc2nc3ccccc3o2)C1 (stereo not drawn) [Example IIIc-3, Benzoxazol-2-yl-((cis-1,5)-5-methoxy-1,3,3-trimethyl-cyclohexylmethyl)-amine]",EC50,Influenza H1N1 virus,7430 nM
same,IC50 at 3 day,MDCK cells,> 50000 nM
"CC1(C)CC(O)CC(C)(C(=O)Nc2ccc(F)c(C(F)(F)F)c2)C1 (stereo not drawn) [Example IVa-21, (cis-1,5)-5-Hydroxy-1,3,3-trimethyl-cyclohexanecarboxylic acid(4-fluoro-3-trifluoromethyl-phenyl)-amide]",EC50,Influenza H1N1 virus,454 nM
same,IC50 at 3 day,MDCK cells,29600 nM
"CC1(C)CC(O)CC(C)(CNc2cncc(Cl)n2)C1 (stereo not drawn) [Example IIIb-1, (cis-1,3)-3-[(6-Chloro-pyrazin-2-ylamino)-methyl]-3,5,5-trimethyl-cyclohexanol]",EC50,Influenza H1N1 virus,4120 nM
same,IC50 at 3 day,MDCK cells,> 50000 nM
"CC1(C)CC(O)CC(C)(C(=O)Nc2cccc(C(F)(F)F)c2)C1 (stereo not drawn) [Example IVa-4, (cis-1,5)-5-Hydroxy-1,3,3-trimethyl-cyclohexanecarboxylic acid(3-trifluoromethyl-phenyl)-amide]",EC50,Influenza H1N1 virus,340 nM
same,IC50 at 3 day,MDCK cells,68300 nM
"COc1cc(NC(=O)C2(C)CC(O)CC(C)(C)C2)cc(C(F)(F)F)c1 (stereo not drawn) [Example IVa-16, (cis-1,5)-5-Hydroxy-1,3,3-trimethyl-cyclohexanecarboxylic acid(3-methoxy-5-trifluoromethyl-phenyl)-amide]",EC50,Influenza H1N1 virus,60 nM
same,IC50 at 3 day,MDCK cells,74800 nM
"CC1(C)CC(O)CC(C)(C(=O)Nc2ccc(Cl)c(Cl)c2)C1 (stereo not drawn) [Example IVa-20, (cis-1,5)-5-Hydroxy-1,3,3-trimethyl-cyclohexanecarboxylic acid(3,4-dichloro-phenyl)-amide]",EC50,Influenza H1N1 virus,627 nM
same,IC50 at 3 day,MDCK cells,9630 nM
"CC1(C)CC(O)CC(C)(CNc2cc(C(F)(F)F)cc(C(F)(F)F)c2)C1 (stereo not drawn) [Example IIa-25, (cis-1,3)-3-[(3,5-Bis-trifluoromethyl-phenylamino)-methyl]-3,5,5-trimethyl-cyclohexanol]",EC50,Influenza H1N1 virus,95 nM
same,IC50 at 3 day,MDCK cells,2830 nM
"CC1(C)CC(O)CC(C)(CNc2ncccc2C(F)(F)F)C1 (stereo not drawn) [Example IIIa-5, (cis-1,5)-3,3,5-Trimethyl-5-[(3-trifluoromethyl-pyridin-2-ylamino)-methyl]-cyclohexanol]",EC50,Influenza H1N1 virus,< 159 nM
same,IC50 at 3 day,MDCK cells,22100 nM
"Cc1cc(Cl)cc(NCC2(C)CC(O)CC(C)(C)C2)c1 (stereo not drawn) [Example IIa-18, (cis-1,3)-3-[(3-Chloro-5-methyl-phenylamino)-methyl]-3,5,5-trimethyl-cyclohexanol]",EC50,Influenza H1N1 virus,25 nM
same,IC50 at 3 day,MDCK cells,> 3160 nM
"CN(CC1(C)CC(O)CC(C)(C)C1)c1cccc(Cl)c1 (stereo not drawn) [Example IIb-1, (cis-1,3)-3-{[(3-Chloro-phenyl)-methyl-amino]-methyl}-3,5,5-trimethyl-cyclohexanol]",EC50,Influenza H1N1 virus,600 nM
same,IC50 at 3 day,MDCK cells,7580 nM
"CC1(C)CC(O)CC(C)(C(=O)Nc2cc(Br)cc(C(F)(F)F)c2)C1 (stereo not drawn) [Example IVa-15, (cis-1,5)-5-Hydroxy-1,3,3-trimethyl-cyclohexanecarboxylic acid(3-bromo-5-trifluoromethyl-phenyl)-amide]",EC50,Influenza H1N1 virus,55 nM
same,IC50 at 3 day,MDCK cells,7310 nM
"CC(C)c1cccc(NCC2(C)CC(O)CC(C)(C)C2)c1 (stereo not drawn) [Example IIa-12, (cis-1,3)-3-[(3-Isopropyl-phenylamino)-methyl]-3,5,5-trimethyl-cyclohexanol]",EC50,Influenza H1N1 virus,90 nM
same,IC50 at 3 day,MDCK cells,6680 nM
"CC1(C)CC(O)CC(C)(CNc2ccc(Cl)c(Cl)c2)C1 (stereo not drawn) [Example IIa-27, (cis-1,3)-3-[(3,4-Dichloro-phenylamino)-methyl]-3,5,5-trimethyl-cyclohexanol]",EC50,Influenza H1N1 virus,68 nM
same,IC50 at 3 day,MDCK cells,2490 nM
"CC1(C)CC(O)CC(C)(CNc2noc3ccccc23)C1 (stereo not drawn) [Example IIId-1, (cis-1,3)-3-(Benzo[d]isoxazol-3-ylaminomethyl)-3,5,5-trimethyl-cyclohexanol]",EC50,Influenza H1N1 virus,400 nM
same,IC50 at 3 day,MDCK cells,> 50000 nM
"CC1(C)CC(O)CC(C)(C(=O)Nc2cccc(S(N)(=O)=O)c2)C1 (stereo not drawn) [Example IVa-10, (cis-1,5)-5-Hydroxy-1,3,3-trimethyl-cyclohexanecarboxylic acid(3-sulfamoyl-phenyl)-amide]",EC50,Influenza H1N1 virus,7960 nM
same,IC50 at 3 day,MDCK cells,> 100000 nM
"CN(C)C1CC(C)(C)CC(C)(CNc2cc(F)cc(C(F)(F)F)c2)C1 (stereo not drawn) [Example IIh-1, ((cis-1,5)-5-Dimethylamino-1,3,3-trimethyl-cyclohexylmethyl)-(3-fluoro-5-trifluoromethyl-phenyl)-amine]",EC50,Influenza H1N1 virus,1700 nM
same,IC50 at 3 day,MDCK cells,8390 nM
"CC(C)c1cccc(NC(=O)C2(C)CC(O)CC(C)(C)C2)c1 (stereo not drawn) [Example IVa-5, (cis-1,5)-5-Hydroxy-1,3,3-trimethyl-cyclohexanecarboxylic acid(3-isopropyl-phenyl)-amide]",EC50,Influenza H1N1 virus,1040 nM
same,IC50 at 3 day,MDCK cells,21600 nM
"CC1(C)CC(O)CC(C)(CNc2nccc(C(F)(F)F)n2)C1 (stereo not drawn) [Example IIIa-10, (cis-1,5)-3,3,5-Trimethyl-5-[(4-trifluoromethyl-pyrimidin-2-ylamino)-methyl]-cyclohexanol]",EC50,Influenza H1N1 virus,120 nM
same,IC50 at 3 day,MDCK cells,47800 nM
"CC1(C)CC(F)(F)CC(C)(CNc2cc(F)cc(C(F)(F)F)c2)C1 (stereo not shown) [Example IIe-1, (3,3-Difluoro-1,5,5-trimethyl-cyclohexylmethyl)-(3-fluoro-5-trifluoromethyl-phenyl)-amine]",EC50,Influenza H1N1 virus,264 nM
same,IC50 at 3 day,MDCK cells,> 3160 nM
"CC1(C)CC(O)CC(C)(CNc2cc(S(N)(=O)=O)ccn2)C1 (stereo not drawn) [Example IIIa-8, 2-[((cis-1,5)-5-Hydroxy-1,3,3-trimethyl-cyclohexylmethyl)-amino]-pyridine-4-sulfonic acid amide]",EC50,Influenza H1N1 virus,980 nM
same,IC50 at 3 day,MDCK cells,> 100000 nM
"CC(=O)N(C(C)=O)C1CC(C)(C)CC(C)(C(=O)Nc2cccc(Cl)c2)C1 (stereo not drawn) [Example IVb-3, (cis-1,5)-Diacetylamino-1,3,3-trimethyl-cyclohexanecarboxylic acid(3-chloro-phenyl)-amide]",EC50,Influenza H1N1 virus,3150 nM
same,IC50 at 3 day,MDCK cells,22900 nM
"Cc1cc(C)nc(NCC2(C)CC(O)CC(C)(C)C2)n1 (stereo not drawn) [Example IIIa-13, (cis-1,3)-3-[(4,6-Dimethyl-pyrimidin-2-ylamino)-methyl]-3,5,5-trimethyl-cyclohexanol]",EC50,Influenza H1N1 virus,1370 nM
same,IC50 at 3 day,MDCK cells,> 100000 nM
"CC(=O)NC1CC(C)(C)CC(C)(C(=O)Nc2cccc(Cl)c2)C1 (stereo not drawn) [Example IVb-2, (cis-1,5)-5-Acetylamino-1,3,3-trimethyl-cyclohexanecarboxylic acid(3-chloro-phenyl)-amide]",EC50,Influenza H1N1 virus,4610 nM
same,IC50 at 3 day,MDCK cells,> 100000 nM
"CC1(C)CC(O)CC(C)(C(=O)Nc2cc(F)cc(Cl)c2)C1 (stereo not drawn) [Example IVa-12, (cis-1,5)-5-Hydroxy-1,3,3-trimethyl-cyclohexanecarboxylic acid(3-chloro-5-fluoro-phenyl)amide]",EC50,Influenza H1N1 virus,55 nM
same,IC50 at 3 day,MDCK cells,56400 nM
"CC1(C)CC(O)CC(C)(C(=O)Nc2cc(F)cc(C(F)(F)F)c2)C1 (stereo not drawn) [Example IVa-13, (cis-1,5)-5-Hydroxy-1,3,3-trimethyl-cyclohexanecarboxylic acid(3-fluoro-5-trifluoromethyl-phenyl)-amide]",EC50,Influenza H1N1 virus,54 nM
same,IC50 at 3 day,MDCK cells,52800 nM
"CC1(C)CCCC(C)(CNc2cc(F)cc(C(F)(F)F)c2)C1 (stereo not shown) [Example IIc-1, (3-Fluoro-5-trifluoromethyl-phenyl)-(1,3,3-trimethyl-cyclohexylmethyl)-amine]",EC50,Influenza H1N1 virus,237 nM
same,IC50 at 3 day,MDCK cells,2320 nM
"CC(=O)OC1CC(C)(C)CC(C)(CNc2ccccc2)C1 (stereo not drawn) [Example IId-1, Acetic acid (cis-1,5)-3,3,5-trimethyl-5-phenylaminomethyl-cyclohexyl ester]",EC50,Influenza H1N1 virus,492 nM
same,IC50 at 3 day,MDCK cells,64400 nM
"CC1(C)CC(O)CC(C)(C(=O)Nc2cc(F)cc(F)c2)C1 (stereo not drawn) [Example IVa-11, (cis-1,5)-5-Hydroxy-1,3,3-trimethyl-cyclohexanecarboxylic acid(3,5-difluoro-phenyl)-amide]",EC50,Influenza H1N1 virus,320 nM
same,IC50 at 3 day,MDCK cells,> 100000 nM
"CC1(C)CC(O)CC(C)(C(=O)Nc2cc(Cl)cc(Cl)c2)C1 (stereo not drawn) [Example IVa-17, (cis-1,5)-5-Hydroxy-1,3,3-trimethyl-cyclohexanecarboxylic acid(3,5-dichloro-phenyl)-amide]",EC50,Influenza H1N1 virus,49 nM
same,IC50 at 3 day,MDCK cells,23200 nM
"CC1(C)CC(O)CC(C)(CNc2cc(Cl)cc(Cl)c2)C1 (stereo not drawn) [Example IIa-19, (cis-1,3)-3-[(3,5-Dichloro-phenylamino)-methyl]-3,5,5-trimethyl-cyclohexanol]",EC50,Influenza H1N1 virus,32 nM
same,IC50 at 3 day,MDCK cells,7190 nM
"COc1ccnc(NCC2(C)CC(O)CC(C)(C)C2)n1 (stereo not drawn) [Example IIIa-11, (cis-1,3)-3-[(4-Methoxy-pyrimidin-2-ylamino)-methyl]-3,5,5-trimethyl-cyclohexanol]",EC50,Influenza H1N1 virus,1500 nM
same,IC50 at 3 day,MDCK cells,> 50000 nM
"CC1(C)CC(NS(C)(=O)=O)CC(C)(C(=O)Nc2cccc(Cl)c2)C1 (stereo not drawn) [Example IVb-4, (cis-1,5)-5-Methanesulfonylamino-1,3,3-trimethyl-cyclohexanecarboxylic acid(3-chloro-phenyl)-amide]",EC50,Influenza H1N1 virus,2770 nM
same,IC50 at 3 day,MDCK cells,> 100000 nM
